In experiment [1] the test system is human tumour cell line SW620. The experiment in a line: In vitro cell proliferation assay (BrdU incorporation). The settings on record: SW-620, SW620 cells, 48 hours with compound, 2 hour BrdU labelling, read-out: active at (concentration giving 50% inhibition of BrdU incorporation). The format is cell-based. The source says:
(c) In Vitro Cell Proliferation Assay
This and other assays can be used to determine the ability of a test compound to inhibit the growth of adherent mammalian cell lines, for example the human tumour cell line SW620 (ATCC CCL-227). This assay determines the ability of at test compound to inhibit the incorporation of the thymidine analogue, 5′-bromo-2′-deoxy-uridine (BrdU) into cellular DNA. SW620 or other adherent cells were typically seeded at 1×10^5 cells per well in L-15 media (GIBCO) plus 5% foetal calf serum, 1% L-glutamine (100 μl/well) in 96 well tissue culture treated 96 well plates (Costar) and allowed to adhere overnight. […] The optical density of the wells was then determined at 690 nm wavelength using a Titertek Multiscan plate reader. […]
For orientation: Uptake of a labelled nucleoside into DNA is a usual measure of proliferation.

The target of another experiment is T1, Aurora-A (Homo sapiens, UniProt O14965).
T1 construct: 6 histidine tag with spacer region and rTEV protease cleavage site (pFastBac HTc) (N); made in house; host or cells: Spodoptera frugiperda Sf21 insect cells (baculovirus)
T1 sequence (O14965 1-403): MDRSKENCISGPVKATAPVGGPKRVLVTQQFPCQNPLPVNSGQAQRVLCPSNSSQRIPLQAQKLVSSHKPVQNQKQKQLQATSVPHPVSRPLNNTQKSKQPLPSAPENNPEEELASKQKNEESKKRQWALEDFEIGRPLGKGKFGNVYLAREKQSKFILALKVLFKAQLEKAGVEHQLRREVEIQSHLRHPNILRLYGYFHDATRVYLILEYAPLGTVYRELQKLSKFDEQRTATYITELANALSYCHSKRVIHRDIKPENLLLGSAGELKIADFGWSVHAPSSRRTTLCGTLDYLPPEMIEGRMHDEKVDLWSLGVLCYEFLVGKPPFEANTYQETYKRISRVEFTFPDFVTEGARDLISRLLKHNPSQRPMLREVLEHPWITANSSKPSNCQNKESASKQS
Put plainly: In vitro Aurora-A kinase inhibition test. The format is biochemical.

A further experiment deals with T2, Aurora-B (Homo sapiens, UniProt Q96GD4).
T2 construct: 6-histidine tag; made in house; host or cells: Spodoptera frugiperda Sf21 insect cells (baculovirus)
The experiment in a line: In vitro Aurora-B kinase inhibition test. The format is biochemical. The settings on record: recombinant Aurora-B, 33P-ATP peptide substrate filter assay, 60 minutes, room temperature; read-out: concentration giving 50% inhibition of enzyme activity. The source says: (b) In Vitro Aurora-B Kinase Inhibition Test
This assay determines the ability of a test compound to inhibit serine-threonine kinase activity. DNA encoding Aurora-B may be obtained by total gene synthesis or by cloning. This DNA may then be expressed in a suitable expression system to obtain polypeptide with serine-threonine kinase activity. In the case of Aurora-B, the coding sequence was isolated from cDNA by polymerase chain reaction (PCR) and cloned into the pFastBac system in a manner similar to that described above for Aurora-A (i.e. to direct expression of a 6-histidine tagged Aurora-B protein).
For the large scale expression of Aurora-B kinase activity, Sf21 insect cells were grown at 28° C. in TC100 medium supplemented with 10% foetal calf serum (Viralex) and 0.2% F68 Pluronic (Sigma) on a Wheaton roller rig at 3 r.p.m. When the cell density reached 1.2×10^6 cells ml^−1 they were infected with plaque-pure Aurora-B recombinant virus at a multiplicity of infection of 1 and harvested 48 hours later. All subsequent purification steps were performed at 4° C. […]

This is an account of results in US9567358B2, “Methods of treatment using N-(3-fluorophenyl)-2-{3-[(7-{3-[ethyl(2-hydroxyethyl)amino]propoxy}-quinazolin-4-yl)amino]-1H-pyrazol-5-yl}acetamide” (AstraZeneca AB, priority 2002, dated 2017).

T2 sequence (Q96GD4 whole entry): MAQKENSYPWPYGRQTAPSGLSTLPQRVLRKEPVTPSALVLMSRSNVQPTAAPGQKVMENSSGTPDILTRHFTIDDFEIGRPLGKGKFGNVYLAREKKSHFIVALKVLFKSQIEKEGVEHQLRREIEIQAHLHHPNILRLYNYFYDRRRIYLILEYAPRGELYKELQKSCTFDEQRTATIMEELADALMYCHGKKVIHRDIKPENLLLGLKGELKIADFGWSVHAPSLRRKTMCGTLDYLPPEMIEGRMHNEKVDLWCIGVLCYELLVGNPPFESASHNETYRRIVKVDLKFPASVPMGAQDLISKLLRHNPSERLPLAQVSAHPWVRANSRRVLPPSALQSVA

As to `COc1cc2c(Nc3cc(CC(=O)Nc4cccc(F)c4)[nH]n3)ncnc2cc1OCCCN1CCC[C@H]1COP(=O)(O)O` [Compound 5, {(2S)-1-[3-({4-[(5-{2-[(3-fluorophenyl)amino]-2-oxoethyl}-1H-pyrazol-3-yl)amino]-6-methoxyquinazolin-7-yl}oxy)propyl]pyrrolidin-2-yl}methyl dihydrogen phosphate], the IC50 in experiment [1] stood at 0.1 nM; against Aurora-A it was 5.5 nM; on Aurora-B it was 1.6 nM.
